Tests used:
H1299 cells [1] = experiment: Seahorse oxygen consumption rate (mitochondrial stress test); assay type: cell-based, human
Method: Seahorse extracellular flux analyzer experiments. Cells derived from spheres or monolayer cultures were dissociated and plated overnight at 12,000 cells/well in DMEM with 10% FBS, 5 mM glucose, 1 mM pyruvate, 2 mM glutamine.
For the mitochondrial stress test, the media was replaced with DMEM without FBS or bicarbonate, containing 5 mM glucose, 1 mM pyruvate, 2 mM glutamine and placed in a CO2 free incubator at 37° C. for 1 hour, and then transferred to the Xf96 extracellular flux analyzer (Agilent; Santa Clara, CA). The program consisted of 3 measurements of OCR/ECAR before the injection of each drug: oligomycin (0.5 μM final concentration), FCCP (2 μM) and rotenone/antimycin (0.5 μM of each). […] There were 3 measurements of OCR/ECAR before each injection: glucose (10 mM final concentration), oligomycin (0.5 […] (50 mM). For the analysis of glutamine oxidation, the protocol was the same as the glucose stress test, but with glutamine being the only compound injected (final concentration 4 mM) and OCR/ECAR measured for 60 minutes. When spheres were analyzed, they were dissociated with StemPro® Accutase® (Thermo Scientific; Waltham, MA) and plated under the same conditions as above as for the monolayers the day before the assay (H1299 spheres), or in stem cell media (See Stem Cell Media) with the wells coated in 15 μL of 2% geltrex diluted in DMEM:F12 (Thermo Scientific). […]

SLC25A1 = SLC25A1 (Homo sapiens, UniProt P53007); experiment: Surface plasmon resonance (SPR) binding to recombinant purified SLC25A1; conditions: steady state, 1:1 binding model; human protein
Method: Surface Plasmon Resonance (SPR). SPR experiments were performed on a Biacore 4000 instrument at room temperature. The NTA sensorchip surface was activated by injecting 0.5 mM NiCl2 for 1 minute. Histidine-tagged recombinant purified SLC25A1 protein (0.07 mg/ml stock concentration) was used as the ligand to capture on the sensor surface. SLC25A1 was dissolved (1:50 dilution) in PBS-P (20 mM phosphate buffer (pH 7.4), 2.7 mM KCl, 137 mM NaCl and 0.05% surfactant P20) buffer and captured onto spots 2 and 4. SLC25A1 was captured to a level of ˜3000. PBS-P was used as the capture running buffer. Small molecules were used as analytes to flow over the ligand immobilized surface. Spot 3 of all flow cells were used as reference. The calculated theoretical Rmax was ˜30 RU based on a 1:1 interaction. The kinetics experiments were performed in the presence of HBS-P (10 mM HEPES (pH7.4), 150 mM NaCl, and 0.05% surfactant P20). The flow rate of all the solutions was maintained at 30 μL/min. The analyte concentrations were 0 μM, […], 6.25 μM, 12.5 μM, 25 μM, 50 μM, and 100 μM. Analyte concentrations showing signs of aggregation were excluded from the analysis. Data were analyzed by Biacore BiaEvaluation software for 1:1 steady state binding model.

MP1 tumor spheres = experiment: Spheroid-based matrix invasion assay (invadopodia); assay type: cell-based, human; conditions: spheres embedded in geltrex
Method: Invadopodia measurements. After embedding the spheres in a 3D matrix, their extent of invasion was monitored over […]. Using an inverted microscope set at a magnification of 20×, images of the spheres were obtained at 0 hours, 24 hours, and 48 hours after plating. Analysis for invasion was done using ‘imageJ’ by NIH. The area of invasion was measured by sketching an outline around the spheres using the freehand draw tool. The ‘measure’ tool in ‘Analyze’ on the top menu calculated the area for the selected spheroid. The areas of just the spheres (inner area) and the area of the spheres along with its invadopodia (outer area) were measured. The percent difference between the outer area and the inner area was graphed to understand the extent of invasion in each cell type at different time points. The obtained areas for all the spheres were graphed. Spheres of similar areas were selected, whereas the outliers were eliminated so as to compare the spheres of similar volumes.

H1299 cells [2] = experiment: Sphere forming / self-renewal assay; assay type: cell-based, human
Method: Growth of monolayers and sphere cultures. Tumor cell lines were grown as monolayers in complete Dulbecco's Modified Eagle's Media (DMEM, Gibco; supplemented with 10% fetal bovine serum and 1% of 5,000 units/mL of penicillin-streptomycin (pen-strep), Gibco). To generate spheroids, cells were grown in Falcon bacteriological petri dishes coated with 2% poly(2-hydroxyethyl methacrylate) dissolved in 100% ethanol. The growth media was DMEM/F12 (Gibco) supplemented with 20 ng/mL of epidermal growth factor (EGF), 5 ng/mL of fibroblast growth factor, 0.375% 100× N2 supplements (Gibco), and 1% pen-strep. Monolayer cells were dissociated using 0.25% trypsin-edta (Gibco), whereas spheroid cultures were dissociated using StemPro Accutase (Gibco). Patient derived cell lines were grown as described below in the primary lung cultures section.
(§1) Self-renewal assays. Tumor cells cultured as spheroids were dissociated and diluted in 2× sphere media containing 1% methyl cellulose, which was previously dissolved in cold DMEM/F12 media. Either 200, 500, or 1000 cells were then plated in each 96 well and were incubated in the presence or absence of drugs, as indicated. The spheres were allowed to form for a period of a week to ten days, at which point they were counted. Six biological replicates were used for quantification of the results.

MP1 cells = experiment: Self-renewal and sphere forming in methylcellulose; assay type: cell-based, human; conditions: semi-solid media
Method: as §1
Primary lung cancer cultures and GMSC. Surgical samples were minced and digested with dispase (50 U/ml) in DMEM media containing 5% serum for 1 hour. Pleural effusions were centrifuged, washed once in PBS, and then plated. All primary cultures were initially grown on 6-well plates pre-coated with 2% Geltrex (Life Technologies; Carlsbad, CA) and 1% Maxgel (Sigma Aldrich). Maxgel is a humanized matrix, native and non-denatured. The inclusion of Maxgel in the system enhanced the initial attachment of primary tumor cells, partially because Maxgel provides a more natural ECM conformational substrate. The day after plating, the media containing unattached cells was typically transferred to a fresh plate, in most of cases generating new attached cultures. […]

Sequence of SLC25A1 (P53007 14-311): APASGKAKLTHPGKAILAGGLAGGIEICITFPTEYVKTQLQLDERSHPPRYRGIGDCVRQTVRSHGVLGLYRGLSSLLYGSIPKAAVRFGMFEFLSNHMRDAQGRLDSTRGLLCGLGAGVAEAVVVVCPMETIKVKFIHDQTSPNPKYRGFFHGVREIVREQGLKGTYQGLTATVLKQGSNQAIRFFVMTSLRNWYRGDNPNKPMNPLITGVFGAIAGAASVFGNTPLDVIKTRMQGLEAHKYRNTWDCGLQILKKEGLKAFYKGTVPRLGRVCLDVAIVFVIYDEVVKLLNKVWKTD

With `O=C(O)c1ccccc1NS(=O)(=O)c1ccc(Cl)c([N+](=O)[O-])c1` [CTPI-2] the “respiratory activity of cells expressing the SLC25A1 shRNA” value (H1299 cells [1]; SLC25A1 shRNA cells) was “failed to affect the respiratory activity”, the “respiratory capacity (OCR)” value (H1299 cells [1]; treated for three hours, spheres and monolayers) was “inhibited respiratory capacity in a dose-dependent fashion” and the Kd (SLC25A1) was 5.3 µM. For the same compound, the matrix invasion (MP1 tumor spheres) was “completely reverted this phenotype”, the “sphere forming capacity, compared with CTPI-1” value (H1299 cells [2]; FIG. 2E) was “inhibited sphere forming capacity more efficiently than CTPI-1” and the “activity in spheres versus 2D/monolayer cultures” value (H1299 cells [2]; sphere forming assay compared with monolayer) was “significantly more prominent in spheres than in 2D cultures”. For the same compound, the “self-renewal and sphere forming ability” value (MP1 cells) was “blunted self-renewal and sphere forming ability”.
